Like-named read-outs stand apart in the source and are kept apart here.
What was measured:
Jurkat cells [1] = test: apoptosis (Annexin-PE) and necrosis (RedDot 2) by flow cytometry, 4 hours; type: cell-based, human; conditions: for effect on Jurkat cells (alive, apoptotic, necrotic): 4 hours
Description: Referring to FIGS. 4, 5, 6, 8, 12 and 15, cells were treated with the indicated compounds or vehicle for 4 hours in RPMI medium with 10% fetal bovine serum (FBS). RPMI medium, also known as RPMI 1640, is a growth medium used in cell culture. In these and other figures, “vehicle” represents when a treatment compound is omitted and replaced with the vehicle that the compound is dissolved in. Thus, when a MnP is omitted, water is added in its place. When an oxidizable phenol is omitted, DMSO is added for a resulting final concentration in the cell media of 0.05% DMSO. Apoptosis was measured using Annexin-PE, and necrosis was measured with RedDot 2. Fluorescence was read on an Accuri C6 flow cytometer with excitation from a 488 nm laser, and FL2 and FL4 filters were used for Annexin-PE and RedDot2, respectively. 10,000 events were acquired. Flow cytometry data was analyzed using Flowlogic software from Inivai Technologies of Australia. […] Percentage of alive, apoptotic, or necrotic cells was determined and graphed as the average±the standard deviation.
The combination of tBHQ and MnTMPyP is toxic to Jurkat cells, a CD4+ T-cell leukemic cell line. […] Cells that were alive, apoptotic or necrotic were determined using flow cytometry. Two specimens (biological duplicates) were measured for each sample.
Cells that were alive, apoptotic or necrotic were determined using flow cytometry, with n=2 (biological duplicates).
Referring to FIG. 12, unlike tBHQ, dtBHQ has no toxicity to Jurkat cells in combination with MnTMPyP. […] Cells that were alive, apoptotic or necrotic were determined using flow cytometry, with n=2 (biological duplicates).
Referring to FIG. 15, Jurkat cell death upon exposure to MNTE-2-PyP and MnTNBuOE-2-PyP (labelled as Mn2E and Mn2BuOE, respectively, in FIG. 15) are compared with that of exposure to Mn4M. […] Cells that were alive, apoptotic or necrotic were determined using flow cytometry, with n=2 (technical duplicates).
Jurkat cells were treated with 5 mM ascorbic acid or 5 μM tBHQ with or without 12 μM MnTMPyP for 4 h. Apoptosis was measured using Annexin-PE, necrosis with RedDot 2. […]

[2] = tested on: MDA-MB-231 breast cancer cells; conditions: 24 hours; for efficacy at killing breast cancer cells compared with MnTM4PyP: when combined with tBHQ
NALM6 cells = test: apoptosis (Annexin-PE) and necrosis (RedDot 2) by flow cytometry, 4 hours; type: cell-based; conditions: tBHQ or 12 μM MnTMPyP alone
[3] = tested on: MDA-MB-231 breast cancer cells; test: cells; conditions: Homo sapiens, MDA-MB-231, 24 h
Jurkat cells [4] = test: cells; conditions: Homo sapiens, 24 h
Description: Referring to FIG. 16, Jurkat cells were treated with the indicated compounds for 24 hours in RPMI with 2% FBS. Live cells were measured using the CellTiter-Fluor dye, which enters living cells and is cleaved by intracellular proteases to release the fluorescent coumarin molecule. Fluorescence was measured on a ClarioStar Plus plate reader in a 96-well plate format with excitation at 390 nm and emission capture at 505 nm. […] Data are graphed as the average±the standard error, along with the fit.
The relative number of viable cells in a sample was determined using CellTiter-Fluor dye with relative fluorescence units (RFU). […] The LC50 value for a compound is the concentration required to kill half of the cells tested after a specified test duration such as 24 hours.

[5] = tested on: PC3 prostate cancer cells; test: cells; conditions: 24 h
[6] = read-out: LC50 for tBHQ in the presence of Mn2BuOE

Structure (SMILES): CCCCOCC[n+]1ccccc1-c1c2nc(c(-c3cccc[n+]3CCOCCCC)c3ccc([nH]3)c(-c3cccc[n+]3CCOCCCC)c3nc(c(-c4cccc[n+]4CCOCCCC)c4ccc1[nH]4)C=C3)C=C2.[Mn+3] [Mn2BuOE]
- effectiveness at 1.2 μM versus 12 μM (Jurkat cells [1]; in combination with 5 μM tBHQ, four hours): almost as effective at 1.2 μM as it was at 12 μM
- efficacy at killing breast cancer cells compared with MnTM4PyP [2]: higher efficacy
- concentration at which Mn2BuOE is active ([2]; with 20 μM tBHQ): less than 1 μM
- toxicity of Mn2BuOE alone ([2]; without tBHQ, tested concentrations): not toxic at tested concentrations

Structure (SMILES): CC[n+]1ccccc1-c1c2nc(c(-c3cccc[n+]3CC)c3ccc([n-]3)c(-c3cccc[n+]3CC)c3nc(c(-c4cccc[n+]4CC)c4ccc1[n-]4)C=C3)C=C2.[Mn+3] [Mn2TE2]
- efficacy at killing breast cancer cells compared with MnTM4PyP [2]: higher efficacy

Structure (SMILES): C[n+]1ccc(-c2c3nc(c(-c4cc[n+](C)cc4)c4ccc([nH]4)c(-c4cc[n+](C)cc4)c4nc(c(-c5cc[n+](C)cc5)c5ccc2[nH]5)C=C4)C=C3)cc1.[Mn+3] [MnTMPyP, Mn(III)tetrakis(1-methyl-4-pyridyl)porphyrin]
- effect on Jurkat cells (alive, apoptotic, necrotic) (Jurkat cells [1]; 12 μM MnTMPyP alone): largely unaffected
- toxicity to NALM6 cells, compound individually (NALM6 cells): low toxicity

Structure (SMILES): CC(C)(C)c1cc(O)ccc1O [tBHQ, tert-butylhydroquinone]
- effect on Jurkat cells (alive, apoptotic, necrotic) (Jurkat cells [1]; 5 μM to 20 μM tBHQ alone): largely unaffected
- CC50 ([3]; read-out: LC50 for tBHQ alone): > 100 µM
- CC50 ([3]; read-out: LC50 for tBHQ in the presence of MnTMPyP): 20 µM
- toxicity to NALM6 cells, compound individually (NALM6 cells): low toxicity
- toxicity of tBHQ alone ([2]; at 100 μM tBHQ): no toxicity observed
- CC50 (Jurkat cells [4]; read-out: LC50 for tBHQ alone): 80 ± 30 µM
- CC50 (Jurkat cells [4]; [6]): 1.29 ± 0.04 µM
- CC50 ([5]; read-out: LC50 for tBHQ alone): > 100 µM
- CC50 [5, 6]: 16 ± 7 µM
